Measurements as given in ChEMBL document CHEMBL4425136, “4-Oxo-1,4-dihydroquinoline-3-carboxamide Derivatives as New Axl Kinase Inhibitors” (J Med Chem, 2016).

Assays:
[1] = biological target: T1, Tyrosine-protein kinase receptor UFO (Homo sapiens, UniProt P30530); test: Inhibition of human recombinant AXL incubated for 1 to 1.5 hrs by FRET based Z'-Lyte kinase assay
T1 sequence (P30530 whole entry): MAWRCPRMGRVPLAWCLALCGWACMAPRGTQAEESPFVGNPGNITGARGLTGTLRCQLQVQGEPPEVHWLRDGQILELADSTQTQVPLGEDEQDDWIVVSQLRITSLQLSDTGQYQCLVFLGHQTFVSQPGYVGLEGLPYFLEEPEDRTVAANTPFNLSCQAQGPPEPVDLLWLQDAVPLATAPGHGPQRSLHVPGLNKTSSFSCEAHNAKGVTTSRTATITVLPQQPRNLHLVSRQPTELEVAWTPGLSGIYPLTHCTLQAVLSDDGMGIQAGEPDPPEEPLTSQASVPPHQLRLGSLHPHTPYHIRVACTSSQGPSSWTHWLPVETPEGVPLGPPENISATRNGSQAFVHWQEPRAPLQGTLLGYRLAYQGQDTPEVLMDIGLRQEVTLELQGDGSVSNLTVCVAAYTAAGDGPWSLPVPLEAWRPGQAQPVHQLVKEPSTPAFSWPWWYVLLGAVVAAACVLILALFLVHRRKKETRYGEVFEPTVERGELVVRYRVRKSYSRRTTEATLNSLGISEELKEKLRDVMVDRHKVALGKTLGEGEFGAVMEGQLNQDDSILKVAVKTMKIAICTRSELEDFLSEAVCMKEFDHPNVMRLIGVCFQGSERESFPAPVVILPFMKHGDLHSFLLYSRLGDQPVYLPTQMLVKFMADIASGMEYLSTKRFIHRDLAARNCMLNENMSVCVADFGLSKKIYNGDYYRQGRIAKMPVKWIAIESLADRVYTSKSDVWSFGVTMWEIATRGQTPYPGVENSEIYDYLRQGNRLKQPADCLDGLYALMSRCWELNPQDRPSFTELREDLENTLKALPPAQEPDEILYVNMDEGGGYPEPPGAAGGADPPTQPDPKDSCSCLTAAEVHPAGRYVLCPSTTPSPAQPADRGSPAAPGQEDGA

[2] = biological target: T1, Tyrosine-protein kinase receptor UFO; test: Binding affinity to human AXL by active site dependent completion binding assay
MDA-MB-231 [3] = test: Effect on total AXL protein level in human MDA-MB-231 cells at 0.03 to 3 uM after 6 hrs by Western blot method; assay type: ADME, cell-based; conditions: mda-mb-231, 6 h
MDA-MB-231 [4] = test: Effect on total AKT protein level in human MDA-MB-231 cells at 0.03 to 3 uM after 6 hrs by Western blot method; assay type: ADME, cell-based; conditions: mda-mb-231, 6 h
MDA-MB-231 [5] = test: Antiproliferative activity against human MDA-MB-231 cells after 24 to 72 hrs by MTT assay; assay type: functional, cell-based
4T1 [6] = test: Antiproliferative activity against mouse 4T1 cells over-expressing Axl cells after 24 to 72 hrs by MTT assay; assay type: functional, cell-based
MDA-MB-231 [7] = test: Antiproliferative activity against human MDA-MB-231 cells after 24 to 72 hrs by CCK8 assay; assay type: functional, cell-based
4T1 [8] = test: Antiproliferative activity against mouse 4T1 cells over-expressing Axl cells after 24 to 72 hrs by CCK8 assay; assay type: functional, cell-based
[9] = Tmax in Sprague-Dawley rat at 25 mg/kg, po by LC/MS method; assay type: ADME, organism-based; conditions: in vivo
[10] = Oral bioavailability in Sprague-Dawley rat at 25 mg/kg by LC/MS method; assay type: ADME, organism-based; conditions: in vivo
[11] = biological target: ALK tyrosine kinase receptor (Homo sapiens, UniProt Q9UM73); test: Binding affinity to human ALK
[12] = biological target: T1, Tyrosine-protein kinase receptor UFO; test: Binding affinity to human AXL
[13] = biological target: Tyrosine-protein kinase Blk (Homo sapiens, UniProt P51451); test: Binding affinity to human BLK
Aurora kinase A = Aurora kinase A (Homo sapiens, UniProt O14965); test: Inhibition of aurora A (unknown origin)
Aurora kinase B = Aurora kinase B (Homo sapiens, UniProt Q96GD4); test: Inhibition of aurora B (unknown origin)
[14] = biological target: Cyclin-dependent kinase 11B (Homo sapiens, UniProt P21127); test: Binding affinity to human CDK11
[15] = biological target: Cyclin-dependent kinase 8 (Homo sapiens, UniProt P49336); test: Binding affinity to human CDK8
[16] = biological target: Epithelial discoidin domain-containing receptor 1 (Homo sapiens, UniProt Q08345); test: Inhibition of DDR1 (unknown origin)
[17] = biological target: Discoidin domain-containing receptor 2 (Homo sapiens, UniProt Q16832); test: Inhibition of DDR2 (unknown origin)
[18] = biological target: T2, Receptor-type tyrosine-protein kinase FLT3 (Homo sapiens, UniProt P36888); test: Binding affinity to human FLT3
[19] = biological target: T2, Receptor-type tyrosine-protein kinase FLT3; test: Inhibition of FLT3 (unknown origin)
[20] = biological target: Homeodomain-interacting protein kinase 4 (Homo sapiens, UniProt Q8NE63); test: Binding affinity to human HIPk4
[21] = biological target: Mast/stem cell growth factor receptor Kit (Homo sapiens, UniProt P10721); test: Binding affinity to human KIT
[22] = biological target: Serine/threonine-protein kinase 10 (Homo sapiens, UniProt O94804); test: Binding affinity to human LOK
[23] = biological target: Dual specificity mitogen-activated protein kinase kinase 5 (Homo sapiens, UniProt Q13163); test: Binding affinity to human MEK5
[24] = biological target: Tyrosine-protein kinase Mer (Homo sapiens, UniProt Q12866); test: Binding affinity to human MER
[25] = biological target: Hepatocyte growth factor receptor (Homo sapiens, UniProt P08581); test: Binding affinity to human MET
[26] = biological target: STE20-like serine/threonine-protein kinase (Homo sapiens, UniProt Q9H2G2); test: Binding affinity to human SLK
[27] = biological target: High affinity nerve growth factor receptor (Homo sapiens, UniProt P04629); test: Binding affinity to human TRKA
[28] = biological target: BDNF/NT-3 growth factors receptor (Homo sapiens, UniProt Q16620); test: Binding affinity to human TRKB
[29] = biological target: Tyrosine-protein kinase receptor TYRO3 (Homo sapiens, UniProt Q06418); test: Binding affinity to human Tyro3
[30] = AUC (0 to infinity) in Sprague-Dawley rat at 2.5 mg/kg, iv by LC/MS method; assay type: ADME, organism-based; parameters: dose 2.5 mg/kg, route intravenous, time infinity; conditions: in vivo
[31] = Half life in Sprague-Dawley rat at 2.5 mg/kg, iv by LC/MS method; assay type: ADME, organism-based; conditions: in vivo
[32] = Cmax in Sprague-Dawley rat at 2.5 mg/kg, iv by LC/MS method; assay type: ADME, organism-based; parameters: dose 2.5 mg/kg, route intravenous; conditions: in vivo
[33] = Clearance in Sprague-Dawley rat at 2.5 mg/kg, iv by LC/MS method; assay type: ADME, organism-based; conditions: in vivo
[34] = Ratio of Cmax in Sprague-Dawley rat at 25 mg/kg, po to IC50 for inhibition of human recombinant AXL; assay type: organism-based; conditions: in vivo
MDA-MB-231 [35] = test: Inhibition of TGFbeta1-induced cell migration in human MDA-MB-231 cells at 0.2 uM incubated for 24 hrs by wound healing assay; assay type: functional; conditions: MDA-MB-231, 24 h
MDA-MB-231 [36] = test: Inhibition of TGFbeta1-induced cell migration in human MDA-MB-231 cells at 1 uM incubated for 24 hrs by wound healing assay; assay type: functional; conditions: MDA-MB-231, 24 h
MDA-MB-231 [37] = test: Inhibition of TGFbeta1-induced cell migration in human MDA-MB-231 cells at 5 uM incubated for 24 hrs by wound healing assay; assay type: functional; conditions: MDA-MB-231, 24 h
MDA-MB-231 [38] = test: Inhibition of TGFbeta1-induced cell invasion in human MDA-MB-231 cells at 0.04 uM incubated for 24 hrs by matrigel-mediated Boyden chamber assay; assay type: functional; conditions: MDA-MB-231, 24 h
MDA-MB-231 [39] = test: Inhibition of TGFbeta1-induced cell invasion in human MDA-MB-231 cells at 0.2 uM incubated for 24 hrs by matrigel-mediated Boyden chamber assay; assay type: functional; conditions: MDA-MB-231, 24 h
MDA-MB-231 [40] = test: Inhibition of TGFbeta1-induced cell invasion in human MDA-MB-231 cells at 1 uM incubated for 24 hrs by matrigel-mediated Boyden chamber assay; assay type: functional; conditions: MDA-MB-231, 24 h
MDA-MB-231 [41] = test: Inhibition of TGFbeta1-induced cell invasion in human MDA-MB-231 cells at 5 uM incubated for 24 hrs by matrigel-mediated Boyden chamber assay; assay type: functional; conditions: MDA-MB-231, 24 h
MDA-MB-231 [42] = test: Toxicity in human MDA-MB-231 cells at 0.04 to 5 uM incubated for 24 hrs; assay type: cell-based; conditions: mda-mb-231, 24 h

T2 sequence (P36888 whole entry): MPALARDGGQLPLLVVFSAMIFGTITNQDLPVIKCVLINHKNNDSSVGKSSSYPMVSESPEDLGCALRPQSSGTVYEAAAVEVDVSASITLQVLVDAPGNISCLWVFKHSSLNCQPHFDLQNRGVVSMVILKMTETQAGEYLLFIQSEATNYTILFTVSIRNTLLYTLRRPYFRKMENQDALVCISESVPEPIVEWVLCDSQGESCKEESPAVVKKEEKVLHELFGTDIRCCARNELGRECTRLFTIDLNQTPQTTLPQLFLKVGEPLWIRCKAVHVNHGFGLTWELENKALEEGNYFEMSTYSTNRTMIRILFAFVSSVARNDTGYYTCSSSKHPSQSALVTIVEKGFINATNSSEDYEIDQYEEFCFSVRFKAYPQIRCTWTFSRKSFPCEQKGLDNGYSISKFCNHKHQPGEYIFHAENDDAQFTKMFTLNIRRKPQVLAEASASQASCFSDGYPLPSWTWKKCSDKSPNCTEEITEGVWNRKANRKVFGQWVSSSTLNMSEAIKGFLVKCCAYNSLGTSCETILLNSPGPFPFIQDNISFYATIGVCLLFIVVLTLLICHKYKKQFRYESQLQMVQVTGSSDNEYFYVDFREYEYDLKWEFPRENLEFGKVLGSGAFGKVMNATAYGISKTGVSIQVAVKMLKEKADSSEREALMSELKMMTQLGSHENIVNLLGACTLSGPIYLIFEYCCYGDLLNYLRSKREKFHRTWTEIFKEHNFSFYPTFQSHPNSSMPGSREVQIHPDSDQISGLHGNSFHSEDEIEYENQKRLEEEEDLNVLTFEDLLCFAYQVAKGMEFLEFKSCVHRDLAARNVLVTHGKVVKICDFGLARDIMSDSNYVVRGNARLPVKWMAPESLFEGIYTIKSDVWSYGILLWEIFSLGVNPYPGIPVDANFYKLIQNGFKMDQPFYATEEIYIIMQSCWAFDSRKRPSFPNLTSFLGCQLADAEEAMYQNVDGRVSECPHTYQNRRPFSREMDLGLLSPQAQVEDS
Sequence of Tyrosine-protein kinase Mer (Q12866 whole entry): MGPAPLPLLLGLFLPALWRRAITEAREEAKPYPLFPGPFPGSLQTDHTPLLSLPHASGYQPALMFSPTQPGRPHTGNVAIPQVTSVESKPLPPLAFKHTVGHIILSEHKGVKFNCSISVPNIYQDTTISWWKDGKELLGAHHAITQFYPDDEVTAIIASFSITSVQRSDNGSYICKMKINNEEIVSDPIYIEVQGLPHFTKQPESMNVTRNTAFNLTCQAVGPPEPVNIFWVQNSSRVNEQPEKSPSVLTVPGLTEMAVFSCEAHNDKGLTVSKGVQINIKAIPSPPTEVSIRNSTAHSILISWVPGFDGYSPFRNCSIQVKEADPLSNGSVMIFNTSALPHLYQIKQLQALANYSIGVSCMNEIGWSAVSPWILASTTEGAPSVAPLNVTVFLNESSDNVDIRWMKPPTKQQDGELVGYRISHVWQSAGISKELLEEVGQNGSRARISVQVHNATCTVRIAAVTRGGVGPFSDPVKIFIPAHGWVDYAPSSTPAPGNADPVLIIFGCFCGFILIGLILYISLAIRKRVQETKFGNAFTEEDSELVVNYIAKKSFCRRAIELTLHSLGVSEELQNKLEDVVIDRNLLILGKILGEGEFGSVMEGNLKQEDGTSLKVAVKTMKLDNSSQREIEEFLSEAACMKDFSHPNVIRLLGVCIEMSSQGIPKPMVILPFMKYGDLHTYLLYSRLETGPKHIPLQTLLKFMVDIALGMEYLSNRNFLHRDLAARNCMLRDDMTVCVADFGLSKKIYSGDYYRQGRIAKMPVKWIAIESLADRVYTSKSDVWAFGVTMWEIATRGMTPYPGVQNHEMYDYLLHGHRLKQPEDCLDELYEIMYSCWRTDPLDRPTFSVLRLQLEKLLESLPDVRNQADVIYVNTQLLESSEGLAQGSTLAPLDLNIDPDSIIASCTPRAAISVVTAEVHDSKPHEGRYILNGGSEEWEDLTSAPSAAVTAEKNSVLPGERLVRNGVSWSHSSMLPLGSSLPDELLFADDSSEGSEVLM
Sequence of Mast/stem cell growth factor receptor Kit (P10721 whole entry): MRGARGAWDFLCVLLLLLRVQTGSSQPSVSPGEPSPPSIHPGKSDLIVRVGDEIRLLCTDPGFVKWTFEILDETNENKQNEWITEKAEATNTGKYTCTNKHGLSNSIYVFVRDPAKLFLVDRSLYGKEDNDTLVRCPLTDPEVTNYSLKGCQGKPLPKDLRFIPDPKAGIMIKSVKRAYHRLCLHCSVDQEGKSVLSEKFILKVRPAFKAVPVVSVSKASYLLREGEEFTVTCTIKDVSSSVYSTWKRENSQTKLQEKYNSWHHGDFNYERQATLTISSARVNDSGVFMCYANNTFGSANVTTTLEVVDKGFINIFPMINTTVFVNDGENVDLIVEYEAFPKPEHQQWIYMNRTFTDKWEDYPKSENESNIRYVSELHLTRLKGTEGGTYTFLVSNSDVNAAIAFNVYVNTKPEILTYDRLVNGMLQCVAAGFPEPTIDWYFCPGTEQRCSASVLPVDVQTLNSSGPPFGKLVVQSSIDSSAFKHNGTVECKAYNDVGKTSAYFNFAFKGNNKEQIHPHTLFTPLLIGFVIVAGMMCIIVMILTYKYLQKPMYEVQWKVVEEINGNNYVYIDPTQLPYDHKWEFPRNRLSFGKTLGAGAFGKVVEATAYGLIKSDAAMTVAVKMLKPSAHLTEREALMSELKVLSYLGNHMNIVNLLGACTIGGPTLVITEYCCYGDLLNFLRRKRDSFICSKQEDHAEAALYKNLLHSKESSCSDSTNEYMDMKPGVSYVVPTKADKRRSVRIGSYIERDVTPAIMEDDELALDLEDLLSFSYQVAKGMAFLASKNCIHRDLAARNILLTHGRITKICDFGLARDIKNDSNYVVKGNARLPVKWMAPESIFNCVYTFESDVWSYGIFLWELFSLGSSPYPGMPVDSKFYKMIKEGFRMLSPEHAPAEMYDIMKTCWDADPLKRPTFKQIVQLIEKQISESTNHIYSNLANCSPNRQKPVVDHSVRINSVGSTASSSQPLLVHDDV
Sequence of Cyclin-dependent kinase 8 (P49336 whole entry, the tested form may be a part): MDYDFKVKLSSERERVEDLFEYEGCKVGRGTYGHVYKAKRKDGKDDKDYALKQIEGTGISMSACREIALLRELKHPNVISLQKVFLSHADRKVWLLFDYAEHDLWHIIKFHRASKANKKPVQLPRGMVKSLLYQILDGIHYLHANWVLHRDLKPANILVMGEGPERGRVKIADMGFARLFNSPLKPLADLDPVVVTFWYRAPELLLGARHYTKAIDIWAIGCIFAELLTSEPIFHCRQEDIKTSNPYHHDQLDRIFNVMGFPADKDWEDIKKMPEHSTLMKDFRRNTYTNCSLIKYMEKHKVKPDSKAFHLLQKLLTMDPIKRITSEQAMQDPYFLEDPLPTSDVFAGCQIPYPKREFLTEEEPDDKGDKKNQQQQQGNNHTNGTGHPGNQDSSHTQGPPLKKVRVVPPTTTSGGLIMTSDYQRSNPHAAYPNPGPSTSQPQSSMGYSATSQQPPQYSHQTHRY
Sequence of BDNF/NT-3 growth factors receptor (Q16620 whole entry): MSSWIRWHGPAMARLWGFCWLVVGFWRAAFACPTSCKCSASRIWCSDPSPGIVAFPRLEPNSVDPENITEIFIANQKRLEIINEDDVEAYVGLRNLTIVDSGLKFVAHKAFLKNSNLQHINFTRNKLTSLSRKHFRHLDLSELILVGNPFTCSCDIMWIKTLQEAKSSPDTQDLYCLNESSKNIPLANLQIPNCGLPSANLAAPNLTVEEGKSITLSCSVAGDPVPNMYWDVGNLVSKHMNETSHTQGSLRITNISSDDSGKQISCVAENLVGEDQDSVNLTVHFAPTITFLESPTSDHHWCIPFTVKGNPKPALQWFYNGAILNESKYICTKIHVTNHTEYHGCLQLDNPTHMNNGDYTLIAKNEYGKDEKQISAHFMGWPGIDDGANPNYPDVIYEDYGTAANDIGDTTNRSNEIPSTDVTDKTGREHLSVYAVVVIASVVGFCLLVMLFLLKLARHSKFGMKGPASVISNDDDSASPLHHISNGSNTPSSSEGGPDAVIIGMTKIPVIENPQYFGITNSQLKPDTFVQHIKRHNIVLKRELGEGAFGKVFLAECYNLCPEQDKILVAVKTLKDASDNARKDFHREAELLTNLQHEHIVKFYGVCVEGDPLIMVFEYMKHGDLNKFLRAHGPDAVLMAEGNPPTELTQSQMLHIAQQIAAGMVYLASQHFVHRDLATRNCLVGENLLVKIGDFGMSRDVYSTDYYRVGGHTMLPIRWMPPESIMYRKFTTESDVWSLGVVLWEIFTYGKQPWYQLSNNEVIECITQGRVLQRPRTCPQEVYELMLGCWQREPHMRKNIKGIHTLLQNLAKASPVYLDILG
Sequence of High affinity nerve growth factor receptor (P04629 whole entry): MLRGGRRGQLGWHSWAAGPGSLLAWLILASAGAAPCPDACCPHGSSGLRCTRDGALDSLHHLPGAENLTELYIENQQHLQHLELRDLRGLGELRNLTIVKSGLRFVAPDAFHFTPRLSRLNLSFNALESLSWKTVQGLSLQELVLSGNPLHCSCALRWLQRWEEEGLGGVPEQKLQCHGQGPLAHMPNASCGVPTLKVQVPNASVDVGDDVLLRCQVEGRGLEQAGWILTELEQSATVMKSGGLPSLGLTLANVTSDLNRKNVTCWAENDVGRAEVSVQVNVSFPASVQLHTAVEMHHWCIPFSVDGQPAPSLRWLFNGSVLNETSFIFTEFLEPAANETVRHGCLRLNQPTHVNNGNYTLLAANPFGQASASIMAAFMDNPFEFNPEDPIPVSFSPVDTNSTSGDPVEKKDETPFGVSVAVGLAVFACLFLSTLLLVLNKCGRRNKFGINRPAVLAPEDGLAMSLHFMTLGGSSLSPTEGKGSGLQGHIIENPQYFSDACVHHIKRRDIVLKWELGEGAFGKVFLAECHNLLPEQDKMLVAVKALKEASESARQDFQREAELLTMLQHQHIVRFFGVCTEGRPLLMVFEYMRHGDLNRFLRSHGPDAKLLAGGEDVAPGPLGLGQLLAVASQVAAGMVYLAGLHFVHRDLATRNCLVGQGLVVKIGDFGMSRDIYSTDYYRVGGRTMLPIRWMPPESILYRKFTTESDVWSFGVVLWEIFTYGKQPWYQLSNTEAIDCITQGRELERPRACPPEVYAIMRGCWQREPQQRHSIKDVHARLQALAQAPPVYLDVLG

CCc1ccc2c(c1)c(=O)c(C(=O)Nc1ccc(Oc3ccnc4[nH]cc(-c5ccccc5)c34)c(F)c1)c(C)n2C
IC50 [1]: 0.03 µM

CCc1ccc2c(c1)c(=O)c(C(=O)Nc1ccc(Oc3ccnc(Cl)c3)c(F)c1)c(C)n2C
IC50 [1]: > 10 µM

CCc1ccc2c(c1)c(=O)c(C(=O)Nc1ccc(Oc3ccnc4occ(-c5ccccc5)c34)c(F)c1)c(C)n2C
IC50 [1]: 0.192 µM

Cc1ccc2c(c1)c(=O)c(C(=O)Nc1ccc(Oc3ncnc4[nH]cc(-c5ccccc5)c34)c(F)c1)c(C)n2C
IC50 [1]: 0.1 µM

Cc1c(C(=O)Nc2ccc(Oc3ncnc4[nH]cc(-c5ccccc5)c34)c(F)c2)c(=O)c2cc(C3CC3)ccc2n1C
IC50 [1]: 0.23 µM

Cc1c(C(=O)Nc2ccc(Oc3ncnc4[nH]cc(-c5ccccc5)c34)c(F)c2)c(=O)c2cc(C(F)(F)F)ccc2n1C
IC50 [1]: 0.15 µM

CCc1ccc2c(c1)c(=O)c(C(=O)Nc1ccc(Oc3ccnc(C(N)=O)c3Cl)c(F)c1)c(C)n2C
IC50 [1]: > 10 µM

COC(=O)c1ccc2c(c1)c(=O)c(C(=O)Nc1ccc(Oc3ncnc4[nH]cc(-c5ccccc5)c34)c(F)c1)c(C)n2C
IC50 [1]: > 10 µM

CCc1ccc2c(c1)c(=O)c(C(=O)Nc1ccc(Oc3ncnc4[nH]cc(-c5ccccc5)c34)c(F)c1)c(C)n2C
Kd [2]: 0.0012 µM | Activity (MDA-MB-231 [3]): Non-Toxic | Activity (MDA-MB-231 [4]): Non-Toxic | IC50 (MDA-MB-231 [5]): > 10 µM | IC50 (4T1 [6]): > 10 µM | IC50 (MDA-MB-231 [7]): > 10 µM | IC50 (4T1 [8]): > 10 µM | Tmax [9]: 0.67 h | bioavailability [10]: 1.2%

C=C(C)c1ccc2c(c1)c(=O)c(C(=O)Nc1ccc(Oc3ncnc4[nH]cc(-c5ccccc5)c34)c(F)c1)c(C)n2C
IC50 [1]: 0.17 µM

CCn1c(C)c(C(=O)Nc2ccc(Oc3ncnc4[nH]cc(-c5ccccc5)c34)c(F)c2)c(=O)c2cc(C)ccc21
IC50 [1]: 0.15 µM

Cc1c(C(=O)Nc2ccc(Oc3ncnc4[nH]cc(-c5ccccc5)c34)c(F)c2)c(=O)c2cc(C3=CCCC3)ccc2n1C
IC50 [1]: 3.32 µM

Cc1c(C(=O)Nc2ccc(Oc3ncnc4[nH]cc(-c5ccccc5)c34)c(F)c2)c(=O)c2cc(OC(F)(F)F)ccc2n1C
IC50 [1]: 0.074 µM

CCc1ccc2c(c1)c(=O)c(C(=O)Nc1ccc(Oc3ncnc4[nH]cc(-c5ccccc5)c34)cc1F)c(C)n2C
IC50 [1]: 0.03 µM

Cc1ccc2c(c1)c(=O)c(C(=O)Nc1ccc(Oc3ncnc4[nH]cc(-c5ccccc5)c34)c(F)c1)cn2C
IC50 [1]: 0.15 µM

Cc1c(C(=O)Nc2ccc(Oc3ncnc4[nH]cc(-c5ccccc5)c34)c(F)c2)c(=O)c2cc(C3CCCC3)ccc2n1C
IC50 [1]: 0.2 µM

CCc1ccc2c(c1)c(=O)c(C(=O)Nc1ccc(Oc3ncnc4cc(OC)c(OC)cc34)c(F)c1)c(C)n2C
Kd [2]: 0.0027 µM | Kd [11]: > 1 µM | Kd [12]: 0.0027 µM | Kd [13]: 0.2 µM | IC50 (Aurora kinase A): 0.192 µM | IC50 (Aurora kinase B): 0.114 µM | Kd [14]: 0.47 µM | Kd [15]: > 1 µM | IC50 [16]: 0.0222 µM | IC50 [17]: 0.35 µM | Kd [18]: 0.004 µM | IC50 [19]: < 0.01 µM | Kd [20]: 0.011 µM | Kd [21]: 1.67 µM | Kd [22]: 0.01 µM | Kd [23]: 0.038 µM | Kd [24]: 0.0014 µM | Kd [25]: 0.079 µM | Kd [26]: 0.24 µM | Kd [27]: 0.05 µM | Kd [28]: 0.054 µM | Kd [29]: 0.058 µM | Activity (MDA-MB-231 [3]): Non-Toxic | Activity (MDA-MB-231 [4]): Non-Toxic | IC50 (MDA-MB-231 [5]): > 10 µM | IC50 (4T1 [6]): > 10 µM | IC50 (MDA-MB-231 [7]): > 10 µM | IC50 (4T1 [8]): > 10 µM | Tmax [9]: 6 h | AUC(0-inf) [30]: 42300 ng·h/mL | half-life [31]: 25.2 h | Cmax [32]: 1170 ng/mL | clearance [33]: 1.67 mL/min/kg | Ratio [34]: > 900 | inhibition at 0.2 µM (MDA-MB-231 [35]): 24.2% | inhibition at 1 µM (MDA-MB-231 [36]): 50.6% | inhibition at 5 µM (MDA-MB-231 [37]): 58.4% | inhibition at 0.04 µM (MDA-MB-231 [38]): 48.5% | inhibition at 0.2 µM (MDA-MB-231 [39]): 52.1% | inhibition at 1 µM (MDA-MB-231 [40]): 73.5% | inhibition at 5 µM (MDA-MB-231 [41]): 78.1% | Activity (MDA-MB-231 [42]): Non-Toxic
